Assay [1] has as its target T1, Casein kinase I isoform epsilon (Homo sapiens, UniProt P49674). Conditions: dose 10.0 µM.
Target sequence in this assay (P49674 whole entry, looked up, canonical isoform): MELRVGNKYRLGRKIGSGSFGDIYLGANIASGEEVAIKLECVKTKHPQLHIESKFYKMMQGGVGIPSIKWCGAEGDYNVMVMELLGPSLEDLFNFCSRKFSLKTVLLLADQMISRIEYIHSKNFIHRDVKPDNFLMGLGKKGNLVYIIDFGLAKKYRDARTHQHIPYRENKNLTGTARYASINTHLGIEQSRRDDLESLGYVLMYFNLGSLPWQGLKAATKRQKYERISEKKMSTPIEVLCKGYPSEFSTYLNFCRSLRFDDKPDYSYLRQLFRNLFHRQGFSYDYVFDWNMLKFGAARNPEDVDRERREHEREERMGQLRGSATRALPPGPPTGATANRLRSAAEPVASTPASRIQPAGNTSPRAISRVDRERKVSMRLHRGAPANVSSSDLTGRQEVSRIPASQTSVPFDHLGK
Assay [2] addresses Casein kinase I isoform delta (Homo sapiens) (UniProt P48730). Conditions: dose 10.0 µM.
Assay [3] has as its target T2, Dual specificity protein kinase CLK1 (Homo sapiens, UniProt P49759). Conditions: dose 10.0 µM.
The target in assay [4] is T3, Dual specificity protein kinase CLK3 (Homo sapiens, UniProt P49761). Conditions: dose 10.0 µM.
Target sequence in this assay (P49761 whole entry, looked up, canonical isoform): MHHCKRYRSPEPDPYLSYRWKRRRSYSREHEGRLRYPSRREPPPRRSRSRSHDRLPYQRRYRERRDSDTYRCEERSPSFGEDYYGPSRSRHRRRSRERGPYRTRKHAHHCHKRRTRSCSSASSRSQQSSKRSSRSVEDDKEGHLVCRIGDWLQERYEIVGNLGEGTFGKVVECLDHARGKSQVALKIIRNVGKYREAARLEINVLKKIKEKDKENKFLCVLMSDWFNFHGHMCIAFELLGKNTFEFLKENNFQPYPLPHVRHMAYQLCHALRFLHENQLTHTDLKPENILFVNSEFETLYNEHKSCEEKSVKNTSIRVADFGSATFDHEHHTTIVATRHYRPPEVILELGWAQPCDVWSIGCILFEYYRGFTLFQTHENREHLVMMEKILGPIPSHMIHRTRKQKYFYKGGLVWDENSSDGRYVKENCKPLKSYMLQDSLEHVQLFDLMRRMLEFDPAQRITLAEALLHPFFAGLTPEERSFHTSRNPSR
Assay [5] concerns the target T1, Casein kinase I isoform epsilon.
Target sequence in this assay (P49674 whole entry, canonical isoform): as the sequence (P49674 whole entry, looked up, canonical isoform) above
In assay [6] the target is Cyclin-dependent kinase 5/CDK5 activator 1 (Homo sapiens, UniProt Q00535). It is filed as cell-based, Sf9.
Chain of Cyclin-dependent kinase 5/CDK5 activator 1 (Q00535 whole entry): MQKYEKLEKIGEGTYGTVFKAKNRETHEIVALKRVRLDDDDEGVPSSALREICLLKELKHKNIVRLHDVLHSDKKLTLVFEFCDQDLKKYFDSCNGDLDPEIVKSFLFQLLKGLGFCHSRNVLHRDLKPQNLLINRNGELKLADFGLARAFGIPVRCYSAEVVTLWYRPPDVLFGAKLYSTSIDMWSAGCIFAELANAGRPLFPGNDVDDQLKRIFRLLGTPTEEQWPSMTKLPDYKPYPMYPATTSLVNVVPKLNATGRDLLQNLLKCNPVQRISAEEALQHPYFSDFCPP
Chain of Cyclin-dependent kinase 5/CDK5 activator 1 (Q15078 whole entry, further chain): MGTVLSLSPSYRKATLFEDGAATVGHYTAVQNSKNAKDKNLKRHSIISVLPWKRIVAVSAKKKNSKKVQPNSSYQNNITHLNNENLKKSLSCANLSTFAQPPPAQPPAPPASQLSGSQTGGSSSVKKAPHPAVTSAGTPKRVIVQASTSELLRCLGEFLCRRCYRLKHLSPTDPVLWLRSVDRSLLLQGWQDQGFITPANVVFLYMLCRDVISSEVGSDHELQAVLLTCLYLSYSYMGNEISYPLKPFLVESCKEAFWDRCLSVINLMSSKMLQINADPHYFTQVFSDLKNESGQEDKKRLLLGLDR
Assay [7] concerns the target T2, Dual specificity protein kinase CLK1. It is filed as cell-based, Sf9.
Target sequence in this assay (P49759 whole entry): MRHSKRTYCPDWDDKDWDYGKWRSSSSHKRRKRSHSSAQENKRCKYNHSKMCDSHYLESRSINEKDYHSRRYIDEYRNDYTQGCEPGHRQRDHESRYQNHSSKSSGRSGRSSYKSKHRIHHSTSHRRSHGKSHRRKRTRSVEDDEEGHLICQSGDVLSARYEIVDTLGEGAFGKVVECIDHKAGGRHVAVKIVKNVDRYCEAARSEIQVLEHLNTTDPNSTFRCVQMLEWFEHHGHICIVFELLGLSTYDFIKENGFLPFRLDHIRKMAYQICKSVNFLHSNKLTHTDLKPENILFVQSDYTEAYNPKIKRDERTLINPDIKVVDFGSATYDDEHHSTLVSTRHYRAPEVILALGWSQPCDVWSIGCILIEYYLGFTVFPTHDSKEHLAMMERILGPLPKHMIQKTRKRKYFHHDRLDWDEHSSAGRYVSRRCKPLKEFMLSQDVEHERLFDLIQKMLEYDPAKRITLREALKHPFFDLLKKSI
In assay [8] the target is Dual specificity protein kinase CLK2 (Homo sapiens, UniProt P49760).
Chain of Dual specificity protein kinase CLK2 (P49760 whole entry): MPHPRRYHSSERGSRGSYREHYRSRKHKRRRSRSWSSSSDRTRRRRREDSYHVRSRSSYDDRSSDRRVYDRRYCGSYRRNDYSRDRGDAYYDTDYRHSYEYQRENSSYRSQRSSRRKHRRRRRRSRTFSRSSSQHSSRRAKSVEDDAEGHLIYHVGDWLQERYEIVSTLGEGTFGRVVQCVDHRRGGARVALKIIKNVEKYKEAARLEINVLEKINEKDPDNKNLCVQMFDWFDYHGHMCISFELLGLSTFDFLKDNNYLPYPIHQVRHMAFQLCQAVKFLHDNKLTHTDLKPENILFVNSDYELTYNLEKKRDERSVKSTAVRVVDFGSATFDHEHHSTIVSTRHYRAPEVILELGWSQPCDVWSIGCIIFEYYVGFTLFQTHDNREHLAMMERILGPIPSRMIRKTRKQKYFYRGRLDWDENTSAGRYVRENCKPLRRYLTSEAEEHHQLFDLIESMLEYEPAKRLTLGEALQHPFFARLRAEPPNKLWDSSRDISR
For assay [9], the target named is T3, Dual specificity protein kinase CLK3. Type of assay: cell-based, Sf9.
Target sequence in this assay (P49761 whole entry, canonical isoform): as the sequence (P49761 whole entry, looked up, canonical isoform) above
Assay [10] has as its target Dual specificity protein kinase CLK4 (Homo sapiens, UniProt Q9HAZ1).
The target in assay [11] is T4, Dual specificity tyrosine-phosphorylation-regulated kinase 2 (Homo sapiens, UniProt Q92630).
T4 sequence (Q92630 whole entry): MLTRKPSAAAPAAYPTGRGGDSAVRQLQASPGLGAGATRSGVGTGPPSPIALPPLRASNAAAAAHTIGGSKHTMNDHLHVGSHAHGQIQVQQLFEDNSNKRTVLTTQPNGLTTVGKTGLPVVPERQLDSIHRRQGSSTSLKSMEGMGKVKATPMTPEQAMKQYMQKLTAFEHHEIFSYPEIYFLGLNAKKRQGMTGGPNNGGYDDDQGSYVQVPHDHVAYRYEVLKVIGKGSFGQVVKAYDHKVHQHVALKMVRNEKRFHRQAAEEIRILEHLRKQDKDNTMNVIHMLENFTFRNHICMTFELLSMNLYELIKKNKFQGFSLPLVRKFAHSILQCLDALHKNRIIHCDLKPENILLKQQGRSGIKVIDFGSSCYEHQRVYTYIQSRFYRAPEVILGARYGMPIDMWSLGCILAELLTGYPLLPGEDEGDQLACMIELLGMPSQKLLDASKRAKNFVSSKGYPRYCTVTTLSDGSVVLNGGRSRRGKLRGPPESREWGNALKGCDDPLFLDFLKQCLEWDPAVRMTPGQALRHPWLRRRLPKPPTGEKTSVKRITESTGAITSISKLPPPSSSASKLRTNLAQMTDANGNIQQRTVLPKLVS

For assay [12], the target named is T5, Dual specificity tyrosine-phosphorylation-regulated kinase 3 (Homo sapiens, UniProt O43781).
T5 sequence (O43781 whole entry): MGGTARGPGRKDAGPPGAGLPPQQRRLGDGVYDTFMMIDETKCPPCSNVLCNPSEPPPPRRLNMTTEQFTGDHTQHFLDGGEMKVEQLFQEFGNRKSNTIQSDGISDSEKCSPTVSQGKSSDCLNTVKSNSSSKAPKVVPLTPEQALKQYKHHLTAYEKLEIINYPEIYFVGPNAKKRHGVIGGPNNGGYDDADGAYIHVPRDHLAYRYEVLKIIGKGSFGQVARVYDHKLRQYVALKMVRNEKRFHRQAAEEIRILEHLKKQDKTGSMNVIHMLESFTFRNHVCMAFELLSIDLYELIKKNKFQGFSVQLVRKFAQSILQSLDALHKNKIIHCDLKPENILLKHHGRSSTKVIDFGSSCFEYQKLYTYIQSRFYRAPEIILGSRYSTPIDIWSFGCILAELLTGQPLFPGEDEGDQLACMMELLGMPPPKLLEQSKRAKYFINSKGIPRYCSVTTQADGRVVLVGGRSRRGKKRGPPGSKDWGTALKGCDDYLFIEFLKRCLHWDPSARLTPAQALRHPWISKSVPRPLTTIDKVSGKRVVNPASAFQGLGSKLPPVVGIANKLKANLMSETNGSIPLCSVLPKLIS

Assay [13] addresses T6, Dual specificity tyrosine-phosphorylation-regulated kinase 4 (Homo sapiens, UniProt Q9NR20).
T6 sequence (Q9NR20 whole entry): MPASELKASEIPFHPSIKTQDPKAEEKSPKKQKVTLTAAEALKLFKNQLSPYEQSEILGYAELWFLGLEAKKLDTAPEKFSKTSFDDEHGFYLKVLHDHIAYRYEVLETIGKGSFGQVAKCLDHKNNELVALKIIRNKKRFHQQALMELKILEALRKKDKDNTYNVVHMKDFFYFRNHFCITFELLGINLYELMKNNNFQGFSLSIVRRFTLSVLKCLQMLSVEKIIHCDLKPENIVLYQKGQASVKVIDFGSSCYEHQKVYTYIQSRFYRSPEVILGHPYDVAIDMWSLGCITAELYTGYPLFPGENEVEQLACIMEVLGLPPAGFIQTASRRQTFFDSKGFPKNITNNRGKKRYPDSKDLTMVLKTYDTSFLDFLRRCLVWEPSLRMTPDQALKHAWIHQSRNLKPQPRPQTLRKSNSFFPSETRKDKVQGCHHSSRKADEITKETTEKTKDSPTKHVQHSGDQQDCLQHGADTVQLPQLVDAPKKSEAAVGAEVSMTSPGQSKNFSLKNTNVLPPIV

Assay [14] deals with T7, Glycogen synthase kinase-3 beta (Homo sapiens, UniProt P49841). Type of assay: cell-based, Sf9.
Target sequence in this assay (P49841 whole entry): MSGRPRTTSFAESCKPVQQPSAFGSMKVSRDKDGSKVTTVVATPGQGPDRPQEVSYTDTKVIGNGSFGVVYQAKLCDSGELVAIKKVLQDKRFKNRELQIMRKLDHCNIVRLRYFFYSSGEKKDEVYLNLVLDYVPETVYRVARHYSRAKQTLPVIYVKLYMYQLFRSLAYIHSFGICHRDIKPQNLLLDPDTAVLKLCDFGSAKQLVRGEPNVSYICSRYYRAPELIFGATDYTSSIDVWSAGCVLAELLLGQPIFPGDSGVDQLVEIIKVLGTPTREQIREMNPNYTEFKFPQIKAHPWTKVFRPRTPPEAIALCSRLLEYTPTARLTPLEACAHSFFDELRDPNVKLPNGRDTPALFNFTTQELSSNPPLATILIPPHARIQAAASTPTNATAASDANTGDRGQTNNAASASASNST
The target of assay [15] is Dual specificity tyrosine-phosphorylation-regulated kinase 1A (Homo sapiens, UniProt Q13627).
Assay [16] addresses Dual specificity tyrosine-phosphorylation-regulated kinase 2 (Homo sapiens) (UniProt Q92630). Conditions: dose 10.0 µM.
Assay [17] has as its target T8, Mitogen-activated protein kinase 15 (Homo sapiens) (UniProt Q8TD08).
T8 sequence (whole entry): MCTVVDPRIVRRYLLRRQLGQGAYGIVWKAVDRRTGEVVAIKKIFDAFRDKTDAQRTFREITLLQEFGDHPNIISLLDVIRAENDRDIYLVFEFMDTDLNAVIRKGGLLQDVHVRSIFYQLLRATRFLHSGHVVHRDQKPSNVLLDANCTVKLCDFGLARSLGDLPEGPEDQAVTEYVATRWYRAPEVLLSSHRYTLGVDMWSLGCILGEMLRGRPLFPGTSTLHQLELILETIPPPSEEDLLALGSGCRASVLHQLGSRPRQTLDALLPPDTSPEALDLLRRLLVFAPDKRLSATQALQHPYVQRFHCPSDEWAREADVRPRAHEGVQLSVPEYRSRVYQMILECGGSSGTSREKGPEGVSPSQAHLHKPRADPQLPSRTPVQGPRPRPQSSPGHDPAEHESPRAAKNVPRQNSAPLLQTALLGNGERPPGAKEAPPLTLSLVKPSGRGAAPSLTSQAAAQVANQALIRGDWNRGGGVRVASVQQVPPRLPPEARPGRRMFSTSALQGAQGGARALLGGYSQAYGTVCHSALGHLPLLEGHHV
Conditions: dose 10.0 µM.

The target of assay [18] is Calcium/calmodulin-dependent protein kinase kinase 2 (Homo sapiens) (UniProt Q96RR4). Conditions: dose 10.0 µM.
The target of assay [19] is BMP-2-inducible protein kinase (Homo sapiens) (UniProt Q9NSY1). Conditions: dose 10.0 µM.
Assay [20] addresses Casein kinase II subunit alpha (Homo sapiens) (UniProt P68400). Conditions: dose 10.0 µM.
Assay [21] deals with Serine/threonine-protein kinase haspin (Homo sapiens) (UniProt Q8TF76). Conditions: dose 10.0 µM.
Assay [22] concerns the target Aurora kinase A (Homo sapiens) (UniProt O14965). Conditions: dose 10.0 µM.
Assay [23] has as its target T7, Glycogen synthase kinase-3 beta. Conditions: dose 10.0 µM.
The target of assay [24] is AP2-associated protein kinase 1 (Homo sapiens) (UniProt Q2M2I8). Conditions: dose 10.0 µM.
In assay [25] the target is Myotonin-protein kinase (Homo sapiens) (UniProt Q09013). Conditions: dose 10.0 µM.
Assay [26] concerns the target Serine/threonine-protein kinase pim-3 (Homo sapiens) (UniProt Q86V86). Conditions: dose 10.0 µM.
Assay [27] deals with Homeodomain-interacting protein kinase 2 (Homo sapiens) (UniProt Q9H2X6). Conditions: dose 10.0 µM.

We go through 9 compounds from ChEMBL document CHEMBL5360622, “Leucettinibs, a Class of DYRK/CLK Kinase Inhibitors Inspired by the Marine Sponge Natural Product Leucettamine B” (J Med Chem, 2023).

pIC50: −log10 of the molar value. Some results are limits rather than exact numbers.

Chain of Dual specificity protein kinase CLK4 (Q9HAZ1 whole entry): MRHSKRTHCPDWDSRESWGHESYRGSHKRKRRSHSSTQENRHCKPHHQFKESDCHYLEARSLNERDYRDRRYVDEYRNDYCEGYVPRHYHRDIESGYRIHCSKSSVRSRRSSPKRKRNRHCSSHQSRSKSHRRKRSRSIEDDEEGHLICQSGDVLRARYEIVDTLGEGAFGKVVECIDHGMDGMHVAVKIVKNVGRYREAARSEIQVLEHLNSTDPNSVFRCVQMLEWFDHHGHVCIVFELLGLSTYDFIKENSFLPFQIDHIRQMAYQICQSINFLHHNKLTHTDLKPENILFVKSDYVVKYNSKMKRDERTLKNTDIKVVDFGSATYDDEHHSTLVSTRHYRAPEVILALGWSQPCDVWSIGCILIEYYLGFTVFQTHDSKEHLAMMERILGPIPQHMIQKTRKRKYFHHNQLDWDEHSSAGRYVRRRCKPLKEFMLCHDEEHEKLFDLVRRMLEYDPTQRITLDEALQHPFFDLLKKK
Chain of Casein kinase I isoform delta (Homo sapiens) (P48730 whole entry, looked up, canonical isoform): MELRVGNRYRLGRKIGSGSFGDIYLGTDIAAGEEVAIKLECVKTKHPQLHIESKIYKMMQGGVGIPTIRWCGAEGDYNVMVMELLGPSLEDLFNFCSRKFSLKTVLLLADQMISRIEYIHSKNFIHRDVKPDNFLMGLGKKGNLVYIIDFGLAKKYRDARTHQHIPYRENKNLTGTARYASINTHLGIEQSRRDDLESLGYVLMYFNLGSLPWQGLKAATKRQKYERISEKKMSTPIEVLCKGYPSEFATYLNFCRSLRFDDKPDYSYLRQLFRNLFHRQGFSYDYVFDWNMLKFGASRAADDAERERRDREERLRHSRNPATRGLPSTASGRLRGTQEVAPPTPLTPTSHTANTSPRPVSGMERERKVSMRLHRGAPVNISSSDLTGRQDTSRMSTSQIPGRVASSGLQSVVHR

The ΔTm is the change in melting temperature against a reference sample. With `Nc1nccc(-c2c(-c3ccc(F)cc3)ncn2C2CCCCC2)n1`, the thermal shift (ΔTm) stood at 8 °C in assay [1] and 9 °C in assay [2].
For the compound `CN1CCN(C(=O)C(C)(C)c2ccc(C(=O)Nc3cn4cc(-c5ccncc5)ccc4n3)cc2)CC1`, the ΔTm was found to be 15.7 °C in assay [3] and 15 °C in assay [4].
In general, pIC50 refers to the IC50 on a negative log10 scale, so that one unit is a factor of ten. Regarding `O=C1NC(NC2CCCCCC2)=N/C1=C\c1ccc2c(c1)OCO2`, the pIC50 is < 5.00 in [5]; < 5.00 in [6]; 7.38 in [7]; 6.08 in assay [8]; 5.35 in assay [9]; 7.70 in [10]. The negative-log IC50 (pIC50) in assay [11] was 5.29; in [12], 5.50; in assay [13], 5.91; in assay [14], < 5.00; in [15], 7.33.
As for `Cn1ccc2cc(/C=C3\N=C(NC45CC6CC(CC(C6)C4)C5)NC3=O)ccc21`, the negative-log IC50 (pIC50) in [5], in [6], in assay [7], in assay [8], in [9] and in assay [10] was < 5.00 each time. Also, the pIC50 in [11], in [12], in [13], in [14] and in [15] was < 5.00 each time.
Turning to `O=C1NC(NC2CCCCCC2)=N/C1=C\c1ccc2ncoc2c1`, the pIC50 in assay [5] was < 5.00; in assay [6], < 5.00; in assay [7] it was 7.74; in assay [8] it was 6.76; in assay [9], 6.55; in assay [10], 7.96. Besides, the pIC50 in [11] was 6.25; in assay [12], 5.94; in [13], 6.21; in [14], 5.52; in assay [15], 7.89.
With `O=C1NC(NC23CC4CC(CC(C4)C2)C3)=N/C1=C\c1ccc2[nH]ccc2c1`, the pIC50 in [5] was < 5.00; in assay [6], < 5.00; in [7], 5.05; in assay [8], 5.44; in assay [9], < 5.00; in [10], 5.59. For the same compound, the pIC50 is < 5.00 in assay [11]; < 5.00 in assay [12]; < 5.00 in assay [13]; < 5.00 in assay [14]; 6.02 in [15].
In the case of `O=C1NC(NC23CC4CC(CC(C4)C2)C3)=N/C1=C\c1ccc2ncsc2c1`, the thermal shift (ΔTm) worked out at 19.9 °C in [3]; 12.4 °C in assay [16]; 10.3 °C in assay [17]; 10.2 °C in assay [18]; 9.8 °C in [19]; 9.7 °C in [20]. Also, the thermal shift (ΔTm) in assay [4] is 9.7 °C; in [21] it was 7.6 °C; in assay [22], 7.5 °C; in assay [23] it was 6.5 °C; in assay [24], 6.1 °C; in assay [25] it was 5.6 °C. Moreover, the ΔTm in assay [1] came out at 5.5 °C; in assay [26], 5.5 °C; in assay [27], 5.2 °C; in [2] it was 5 °C.
For `CN[C@@H]1C[C@H]2O[C@@](C)([C@@H]1OC)n1c3ccccc3c3c4c(c5c6ccccc6n2c5c31)C(=O)NC4`, the results for the ΔTm in assay [17], in assay [26] and in [27] were 14 °C, 11.9 °C and 4.5 °C, respectively.
Consider `COC(=O)[C@H](C)NC1=N/C(=C\c2ccc3ncsc3c2)C(=O)N1`, for which the negative-log IC50 (pIC50) was < 5.00 in assay [5]; < 5.00 in assay [6]; 7.70 in assay [7]; 7.07 in [8]; 6.55 in assay [9]; 8.15 in assay [10]. Further, the negative logarithm of the IC50 (pIC50) is 6.38 in [11]; 5.91 in [12]; 5.64 in assay [13]; 5.29 in assay [14]; 8.15 in [15].
